Source: patent US12636299B2, “Terpenoid derivatives, pharmaceutical preparations containing these derivatives and their use in neuroprotection” (UNIVERZITA PALACKEHO V OLOMOUCI, priority 2020, dated 2026)

Assays:
[1] = test system: superoxide radical formation; experiment: Oxidative stress (superoxide radical formation, DHE) in 3NPA-induced model on SH-SY5Y; type: cell-based, human; settings: 20 mM 3NPA versus DMSO control
Procedure: Similarly, to previous assay, cells grown on 96-multiwell plates at density 20000 cells per well underwent differentiation and treatment procedure with 3-nitropropionic acid (3NPA) in this model. After 24 hours of co-treatment with 20 mM 3NPA, superoxide radical's formation as a marker of oxidative stress was quantified by dihydroethidium according to Kim et al. (2017, J. Med. Food, 20, 140-151). Briefly, neuron-like SH-SY5Y cells were centrifuged at 500 g for 5 min and 30 s, then media were replaced by 10 μM DHE PBS solution and kept at room temperature for 30 min. After that, DHE was read at 500 nm/580 nm (excitation/emission) by Infinite M200 Pro (Tecan) microplate reader. DHE is cell permeable dye which is selective for superoxide radical detection. Overall oxidative stress achieved by 20 mM 3NPA was consider as 100% and thus the reduction in superoxide radical's formation (OS reducing effect) was determined. As shown in Table 6 and FIG. 2, 20 mM 3NPA induced 2.7-fold increase in superoxide radical's formation.

caspase-3,7 activity = experiment: Caspase-3,7 activity in salsolinol-induced model of PD on SH-SY5Y (Ac-DEVD-AMC); type: cell-based, human; settings: 800 μM SAL versus DMSO control
Procedure: Similarly, as shown in previous assay, cells grew on 96 multiwell plates at density 20000 cells per well underwent differentiation and treatment procedure for salsolinol model. After 24 hour co-treatment with salsolinol, caspase-3,7 (casp-3,7) activity as marker of apoptosis was quantified by its substrate Ac-DEVD-AMC according to Carrasco et al. (2003, BioTechniques, 34, 1064-1067). In this model, overall casp-3,7 activity induced by 800 μM SAL was consider as 100% and thus the reduction in casp-3,7 was observed after treatment with the protective terpenoid derivatives. As shown in Table 4 and FIG. 2, 800 μM SAL induced 2.9-fold increase.

[2] = test system: human neuroblastoma cell line SH-SY5Y; experiment: Viability of differentiated SH-SY5Y in salsolinol-induced model of PD (Calcein AM); type: cell-based; settings: 800 μM salsolinol alone, 24 hours
Procedure: Similarly, as in previous “Safety test”, the SH-SY5Y cells were seeded at density 7000 cells/well. After 48 h differentiation, old 1% DMEM/F12 media was replaced by fresh media containing 800 μM salsolinol (SAL) and tested compounds in 0.1, 1 and 10 μM concentrations. N-acetylcystein were chosen as positive control. After 24 hours, the cell viability was measured by Calcein AM viability assay. The values in Table 2 show % of viability of all tested compounds relative to control. The control (medium with DMSO, <0.1% (v/v)) was postulated as 100% viability (see the first line of the table), while the SAL exposure lead to decrease of viability to 65.4±0.97%.

astrocyte A-172 cells = experiment: 3NPA-induced model of Huntington's disease, astrocyte A-172 cells; type: cell-based, human; settings: difference to 10 mM 3NPA, 48 h
Procedure: Before application of toxin 3-nitropropionic acid (3NPA) for mimicking Huntington's disease, the 3NPA was dissolved in water and neutralized by sodium hydroxide. SH-SY5Y cells were seeded in the same density and differentiated by the procedure shown above. Astrocyte cells A-172 were also seeded as described in previous section. Both cell lines were co-treated by 3NPA (20 mM for SH-SY5Y cells, […]) and tested compounds at 0.1, 1 and 10 μM concentration for 48 h.

Question: O=C(O)CC[N+](=O)[O-] [Compound 3NPA, 3-nitropropionic acid, reference compound] was tested. Which “increase in superoxide radical's formation” value [1] did it give?
Answer: 2.7 fold

Question: With C[C@@H]1NCCc2cc(O)c(O)cc21 [SAL, salsolinol, reference compound] as the compound, how does the “increase of caspase-3,7 activity” value (caspase-3,7 activity) read?
Answer: 2.9 fold

Question: What about the “viability relative to DMSO control after SAL exposure” value [2] of the same compound?
Answer: 65.4±0.97%

Question: With O=C(O)CCCC[C@@H]1CCSS1 [R-LA, R-lipoic acid, reference compound] as the compound, how does the “Astro-protective effect (% of control)” value (astrocyte A-172 cells; A-172, column head 0.5 μM (positive controls)) read?
Answer: N/A (N/A = no protection)

Question: And the “Astro-protective effect (% of control)” value (astrocyte A-172 cells; A-172, column head 5 μM (positive controls))?
Answer: 13.27 % of control

Question: And the “Astro-protective effect (% of control)” value (astrocyte A-172 cells; A-172, column head 50 μM (positive controls))?
Answer: 14.87 % of control
